Results: PMC11429051, “The Effect of Maturity Stage on Polyphenolic Composition, Antioxidant and Anti-Tyrosinase Activities of Ficus rubiginosa Desf. ex Vent. Extracts” (Antioxidants, 2024)
≈ marks a conversion by molar mass, not a printed value.

Target: T1, mushroom tyrosinase
T1 construct: gene PPO3
Experiment: L-DOPA oxidation, absorbance at […] nm after […] min
Assay type: biochemical
Conditions: 0.1 M L-DOPA solution (300 µL in 610 µL assay), 0.05 M phosphate pH 6.8, room temperature, 10 min preincubation

Q: How did the IC50 turn out when C[C@@H]1O[C@@H](OC[C@H]2O[C@@H](Oc3c(-c4ccc(O)c(O)c4)oc4cc(O)cc(O)c4c3=O)[C@H](O)[C@@H](O)[C@@H]2O)[C@H](O)[C@H](O)[C@H]1O [rutin] was run?
A: 5.38 µg/mL (≈ 8.81 µM)
